Consider 12 molecules from patent publication US10093670B2, “Azabenzimidazole derivative having AMPK-activating activity” (Shionogi & Co., Ltd., priority 2011, dated 2018).

Assay [1] deals with T1, human AMPK α1β1γ1 enzyme (Homo sapiens, UniProt Q13131+Q9Y478).
T1 construct: purchased Carna Biosciences, Inc
The experiment in a line: Evaluation of AMPK activator, Test Example 1 (mobility-shift kinase assay, FL-Peptide 7). In kind it is biochemical. The following applies: for EC150 (compound concentration showing 150% relative to the control (100%)): human AMPK α1β1γ1, 25° C., 2 hours, 0.2 mM ATP final; for Emax: read-out: Emax (maximum rate of increase in activity within the measurement range). As for the experimental part:
The obtained liquid was left to stand for 10 minutes.
The obtained liquid was allowed to react at 25° C. for 2 hours, and 10 μl of 20 mM EDTA was then added thereto to stop the reaction.
(§1) To detect phosphorylated fluorescent substrates, the reaction liquid was applied to a measuring device, LabChip EZ Reader II manufactured by Caliper Life Science, Inc., for detecting fluorescence by using differences in mobility due to differences in charge. The setting conditions for the device were pressure, −1.5 PSI; upstream voltage, −2250 V; downstream voltage, −400 V; post sample buffer sip time, 40 seconds; final delay, 120 seconds; and peak order, Product First.
(§2) A conversion rate was calculated from the peak heights of the resulting substrate and product. The conversion rate when not containing a compound was used as a control, and a concentration dependent curve was made by plotting the rate of increase in activity to the control at each concentration of a compound.

Assay [2] deals with T2, Human AMPK α2β2γ1 (Homo sapiens, UniProt O43741+P54646).
T2 construct: The full length cDNAs of human AMPK β2 (NM_005399.3) and human AMPK α2 (NM_006252.3) were inserted; the full length cDNA of human AMPK γ1 (NM_002733.3) had been inserted into pET28b(+); 6xHis (N); made in house; host or cells: Escherichia coli BL21 CodonPlus (DE3)-RIL (AMPK); BL21 Star (DE3) (CaMKKβ)
The experiment in a line: Evaluation of AMPK activator, Test Example 2 (CaMKK2-phosphorylated enzyme, mobility-shift kinase assay). In kind it is biochemical. The following applies: for EC150 (compound concentration showing 150% relative to the control (100%)): human AMPK α2β2γ1 phosphorylated by CaMKK2, 25° C., 2 hours; for Emax: human AMPK α2β2γ1 phosphorylated by CaMKK2, relative to control (100%), read-out: Emax (maximum rate of increase in activity within the measurement range). As for the experimental part: The full length cDNAs of human AMPK β2 (NM_005399.3) and human AMPK α2 (NM_006252.3) were inserted into the MCS1 and MCS2 of the pETDuet-1 vector to prepare a human AMPK β2 and human AMPK α2 (6× His tag at the 5′ terminus) expressing plasmid. The plasmid was contransfected with an expression plasmid, in which the full length cDNA of human AMPK γ1 (NM_002733.3) had been inserted into pET28b(+), into BL21 CodonPlus (DE3)-RIL to obtain an expression strain. The expression strain was cultured in TB medium, followed by induction with 0.5 mM IPTG, and cultured at 25° C. for 3 hours and then harvested. After ultrasonication, supernatant was collected and applied to Histrap FF column (GE) and RESOUECE Q column (GE) to prepare 12.5 mg of purified sample containing three types of subunit from 1.8 L of broth.
An expression vector, in which the full length cDNA of human CAMKK β (NM_172226.1) had been inserted into pGEX-6P-3, was transfected into BL21 Star (DE3). The expression strain was cultured in TB medium, followed by induction with 0.5 mM IPTG, and cultured at 25° C. for 3 hours and then harvested. After ultrasonication, supernatant was collected and applied to GSTrap FF column (GE) to prepare 14 mg of GST-fused CAMKK β from 720 ml of broth.
Evaluation Method of an Activator for AMP-activated Protein Kinase (AMPK) (Test Example 2)
Thus, phosphorylation treatment was carried out as pretreatment.
Human AMPK α2β2γ1 in an amount to give a conversion rate of approximately 10% by reaction for 2 hours, and CaMKK2 in an amount capable of sufficiently imparting activity to AMPK for one hour were mixed in a buffer solution consisting of a 50 mM HEPES-NaOH buffer solution (pH 7.0), 100 mM NaCl, 5 mM magnesium chloride, 0.1% bovine serum albumin, 0.2 mM sodium orthovanadate(V), 1 mM ethylene glycol-bis(2-aminoethyl ether)-N,N,N′,N′-tetraacetic acid (EGTA), 5 mM disodium β-glycerophosphate, 1 mM dithiothreitol and 0.2 mM ATP, and the obtained liquid was left to stand at 25° C. for 1 to 1.5 hours to sufficiently phosphorylate AMPK.
After that, to the enzyme liquid, which had been subjected to phosphorylation treatment, a compound dissolved in DMSO was added so as to have a 1% DMSO concentration. The obtained liquid was left to stand for 10 minutes.
To the liquid, a substrate solution consisting of a 50 mM HEPES-NaOH buffer solution (pH 7.0), 100 mM NaCl, 10 mM magnesium chloride, 0.1% bovine serum albumin, 0.2 mM sodium orthovanadate(V), 1 mM ethylene glycol-bis(2-aminoethyl ether)-N,N,N′,N′-tetraacetic acid (EGTA), 5 mM disodium β-glycerophosphate, 2 mM dithiothreitol, 0.4 mM ATP and 3 μM FL-Peptide 7 (manufactured by Caliper Life Sciences, Inc.) was added in equal amount (10 μl in total). The obtained liquid was allowed to react at 25° C. for 2 hours, and 10 μl of 20 mM EDTA was then added thereto to stop the reaction.
as §1, §2

Where [3] appears, read: human AMPK α1β1γ1, relative to control (100%).

T1 sequence (Q13131 10-559 limits assumed): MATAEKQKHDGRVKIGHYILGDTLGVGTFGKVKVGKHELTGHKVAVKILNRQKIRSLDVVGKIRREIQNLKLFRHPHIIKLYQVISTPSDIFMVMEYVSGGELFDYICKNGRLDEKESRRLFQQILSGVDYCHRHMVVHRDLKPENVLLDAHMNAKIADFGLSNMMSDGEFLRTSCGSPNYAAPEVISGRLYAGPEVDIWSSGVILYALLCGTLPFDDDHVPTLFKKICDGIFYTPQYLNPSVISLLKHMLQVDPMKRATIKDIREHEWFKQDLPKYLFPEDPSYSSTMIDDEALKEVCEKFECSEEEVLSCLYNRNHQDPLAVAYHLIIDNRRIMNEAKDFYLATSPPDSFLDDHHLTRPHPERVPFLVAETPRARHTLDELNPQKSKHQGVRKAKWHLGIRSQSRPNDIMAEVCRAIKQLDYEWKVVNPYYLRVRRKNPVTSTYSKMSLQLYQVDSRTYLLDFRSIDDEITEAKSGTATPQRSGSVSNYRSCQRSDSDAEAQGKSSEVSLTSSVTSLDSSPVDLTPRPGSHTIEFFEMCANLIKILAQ
T1 sequence (Q9Y478 whole entry): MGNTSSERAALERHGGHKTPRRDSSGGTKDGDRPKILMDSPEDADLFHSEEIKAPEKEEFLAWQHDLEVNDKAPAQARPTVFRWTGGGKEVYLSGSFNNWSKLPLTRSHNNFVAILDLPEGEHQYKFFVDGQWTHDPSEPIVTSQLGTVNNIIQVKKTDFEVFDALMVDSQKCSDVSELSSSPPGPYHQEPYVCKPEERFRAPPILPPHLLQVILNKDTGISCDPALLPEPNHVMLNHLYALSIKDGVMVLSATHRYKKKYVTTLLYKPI
T1 sequence (P54619 whole entry partner): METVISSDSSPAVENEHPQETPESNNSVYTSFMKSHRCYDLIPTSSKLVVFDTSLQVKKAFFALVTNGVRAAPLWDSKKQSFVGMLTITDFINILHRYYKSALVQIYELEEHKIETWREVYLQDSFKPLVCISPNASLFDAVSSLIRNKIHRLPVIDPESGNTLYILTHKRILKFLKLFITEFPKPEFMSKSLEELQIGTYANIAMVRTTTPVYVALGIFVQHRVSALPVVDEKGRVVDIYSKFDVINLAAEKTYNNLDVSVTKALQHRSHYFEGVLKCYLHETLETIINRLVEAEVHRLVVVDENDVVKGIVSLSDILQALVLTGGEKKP
T2 sequence (P54646 whole entry): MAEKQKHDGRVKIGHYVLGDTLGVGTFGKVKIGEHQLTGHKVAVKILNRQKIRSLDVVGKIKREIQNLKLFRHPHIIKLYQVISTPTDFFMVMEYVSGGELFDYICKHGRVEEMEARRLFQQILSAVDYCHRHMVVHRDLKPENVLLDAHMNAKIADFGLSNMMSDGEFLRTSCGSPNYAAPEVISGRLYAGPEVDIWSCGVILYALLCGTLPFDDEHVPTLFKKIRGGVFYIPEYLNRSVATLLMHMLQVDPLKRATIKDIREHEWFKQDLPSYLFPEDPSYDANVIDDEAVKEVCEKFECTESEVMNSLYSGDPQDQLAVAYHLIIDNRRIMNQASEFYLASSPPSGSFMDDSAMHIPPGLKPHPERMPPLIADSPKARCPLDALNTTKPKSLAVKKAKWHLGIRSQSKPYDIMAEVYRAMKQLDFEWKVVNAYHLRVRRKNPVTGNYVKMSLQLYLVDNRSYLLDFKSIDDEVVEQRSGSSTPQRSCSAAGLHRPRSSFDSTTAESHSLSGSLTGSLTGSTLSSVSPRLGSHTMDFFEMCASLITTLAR
T2 sequence (O43741 whole entry): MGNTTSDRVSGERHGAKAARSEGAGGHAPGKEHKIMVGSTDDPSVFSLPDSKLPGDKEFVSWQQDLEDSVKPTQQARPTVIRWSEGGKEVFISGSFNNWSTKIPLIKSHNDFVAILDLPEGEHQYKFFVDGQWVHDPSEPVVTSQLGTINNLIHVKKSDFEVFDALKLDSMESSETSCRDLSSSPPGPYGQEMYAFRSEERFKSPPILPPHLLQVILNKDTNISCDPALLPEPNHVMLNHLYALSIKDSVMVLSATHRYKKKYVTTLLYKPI
T2 sequence (P54619 whole entry partner): as the sequence (P54619 whole entry partner) above

Broadly, the Emax is the maximal effect, on the per cent scale that the assay sets. Regarding `CC(=O)NC1CC=C(c2ccc(-c3nc4nc(O[C@H]5CC[C@H](CC(=O)O)CC5)[nH]c4cc3Cl)cc2)CC1` (stereo partly shown) [Compound I-2-76], the “EC150 (compound concentration showing 150% relative to the control (100%))” value in assay [1] is recorded as 14 nM; in assay [2], 85 nM. Besides, the results for the Emax in assay [1] (setting [3]) and in assay [2] were 232% and 175%, respectively.
Regarding `CC(Oc1nc2nc(-c3ccc(N4CCCC4)cc3)c(Cl)cc2[nH]1)c1cc(O)no1` (stereo not shown) [Compound I-2-112], the “EC150 (compound concentration showing 150% relative to the control (100%))” value was determined as 25 nM in assay [1] and 74 nM in assay [2]. Further, the Emax came to 246% in assay [1] (setting [3]) and 269% in assay [2].
Take `CN(C)C(=O)[C@H]1C[C@@H](Oc2nc3nc(-c4ccc(C5=CCC(C(=O)O)CC5)cc4)c(Cl)cc3[nH]2)C1` (stereo partly shown) [Compound I-2-129]: the results for the Emax in assay [1] (setting [3]) and in assay [2] were 276% and 339%, respectively.
Take `CC(C)(C(=O)O)[C@]1(O)CC[C@@H](Oc2nc3nc(-c4ccc(N5CCOCC5)cc4)c(Cl)cc3[nH]2)CC1` [Compound I-3-24]: in assay [1], the “EC150 (compound concentration showing 150% relative to the control (100%))” value is on record as 0.79 nM. In addition, the “Emax (maximum rate of increase in activity within the measurement range)” value in assay [1] (setting [3]) is given as 318%. For the same molecule, in assay [2], the “EC150 (compound concentration showing 150% relative to the control (100%))” value came to 11 nM and the Emax came to 271%.
Regarding `CC(C)(C(=O)O)[C@]1(O)CC[C@@H](Oc2nc3nc(-c4ccc(N5CCCC5)cc4)c(Cl)cc3[nH]2)CC1` [Compound I-3-30], the “EC150 (compound concentration showing 150% relative to the control (100%))” value in assay [1] came to 0.49 nM; in assay [2] it was 12 nM. Moreover, the Emax is 345% in assay [1] (setting [3]) and 271% in assay [2].
With `CC(C)(C(=O)O)C1CCC(Oc2nc3nc(-c4ccc(C5(CO)CC5)cc4)c(Cl)cc3[nH]2)CC1` (stereo not shown) [Compound I-3-37], the results for the “EC150 (compound concentration showing 150% relative to the control (100%))” value in assay [1] and in assay [2] were 5.6 nM and 5 nM, respectively. The maximal effect (Emax) in assay [1] (setting [3]) was determined as 257%; in assay [2], 237%.
For the molecule `CC(C)(C(=O)O)[C@H]1CC[C@H](Oc2nc3nc(-c4c(F)cc(N5CCOCC5)cc4F)ccc3[nH]2)CC1` [Compound I-3-40], the “EC150 (compound concentration showing 150% relative to the control (100%))” value in assay [1] turned out to be 23 nM; in assay [2] it was 69 nM. Further, the Emax in assay [1] (setting [3]) was determined as 244%; in assay [2], 228%.
In the case of `CN(C)C(=O)[C@]1(O)CC[C@@H](Oc2nc3nc(-c4ccc(C5=CCC(C(=O)O)CC5)cc4)c(Cl)cc3[nH]2)CC1` (stereo partly shown) [Compound I-3-54], the “EC150 (compound concentration showing 150% relative to the control (100%))” value in assay [1] stood at 270 nM; in assay [2] it was 2.2 nM. In addition, the maximal effect (Emax) in assay [1] (setting [3]) was 201%; in assay [2] it was 373%.
In the same order, the values of `CC(=O)NC1CC=C(c2ccc(-c3nc4nc(O[C@H]5CC[C@H](C(C)(C)CO)CC5)[nH]c4cc3Cl)cc2)CC1` (stereo partly shown) [Compound I-3-86] are 23 nM, 11 nM, 277% and 259%.
In the case of `CC(C)(C(=O)O)[C@H]1CC[C@H](Oc2nc3nc(-c4ccc(C5=CCN(C(=O)CO)CC5)cc4)c(Cl)cc3[nH]2)CC1` [Compound I-3-90], the results for the “EC150 (compound concentration showing 150% relative to the control (100%))” value in assay [1] and in assay [2] were 17 nM and 21 nM, respectively. Also, the Emax in assay [1] (setting [3]) came out at 320%; in assay [2] it was 274%.
Turning to `CC(C)(C(=O)O)[C@]1(F)CC[C@@H](Oc2nc3nc(-c4ccc(N5CCOCC5)cc4)c(Cl)cc3[nH]2)CC1` [Compound I-3-99], the “EC150 (compound concentration showing 150% relative to the control (100%))” value is 3.7 nM in assay [1] and 15 nM in assay [2]. The Emax in assay [1] (setting [3]) was determined as 310%; in assay [2], 261%.
Regarding `NC(=O)c1ccc(-c2ccc(-c3nc4nc(O[C@H]5CC[C@H](C(=O)O)CC5)[nH]c4cc3Cl)cc2)cc1` [Compound I-3-120], the “EC150 (compound concentration showing 150% relative to the control (100%))” value in assay [1] was determined as 28 nM; in assay [2], 7 nM. Also, the values for the maximum response (Emax) in assay [1] (setting [3]) and in assay [2] were 216% and 262%, respectively.
